# Measured values: publication PMC8025945 (Journal of medicinal chemistry, 2017)
# How the values were obtained:
# [1] = target: T1, recombinant Top1 (Homo sapiens, UniProt P11387); experiment: Top1-mediated DNA cleavage assay; assay type: biochemical; conditions: semiquantitative scale relative to 1 μM MJ-III-65 (6) and 1 μM camptothecin (1)
# T1 sequence (P11387 1-765): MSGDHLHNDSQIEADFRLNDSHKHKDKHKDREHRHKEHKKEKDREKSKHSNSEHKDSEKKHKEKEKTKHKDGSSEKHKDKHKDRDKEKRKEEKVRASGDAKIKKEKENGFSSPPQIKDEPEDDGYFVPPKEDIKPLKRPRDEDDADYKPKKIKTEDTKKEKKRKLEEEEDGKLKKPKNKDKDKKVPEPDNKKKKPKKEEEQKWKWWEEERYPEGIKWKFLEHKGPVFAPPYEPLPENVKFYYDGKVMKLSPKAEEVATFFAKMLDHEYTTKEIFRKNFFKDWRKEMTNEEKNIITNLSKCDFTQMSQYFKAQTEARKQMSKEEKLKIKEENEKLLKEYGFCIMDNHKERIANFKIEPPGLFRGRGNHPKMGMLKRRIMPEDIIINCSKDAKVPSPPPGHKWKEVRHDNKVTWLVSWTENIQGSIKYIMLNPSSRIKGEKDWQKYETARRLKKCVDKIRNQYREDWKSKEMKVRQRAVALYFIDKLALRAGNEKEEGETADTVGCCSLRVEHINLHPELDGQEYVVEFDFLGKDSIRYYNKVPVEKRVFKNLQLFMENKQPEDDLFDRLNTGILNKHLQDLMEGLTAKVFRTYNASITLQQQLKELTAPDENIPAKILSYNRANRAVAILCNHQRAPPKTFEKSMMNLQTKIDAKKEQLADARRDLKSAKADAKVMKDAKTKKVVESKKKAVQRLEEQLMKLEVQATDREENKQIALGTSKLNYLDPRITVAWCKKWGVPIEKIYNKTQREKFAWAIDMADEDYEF
# [2] = test system: zebrafish embryos; conditions: statistical comparison of 9, 16b and 17b
# [3] = test system: DU-145; experiment: NCI-60 human tumor cell line screen, prostate DU-145; conditions: read-out: cytotoxicity (GI50) prostate DU-145; 50% growth inhibition
# [4] = test system: SN12C; experiment: NCI-60 human tumor cell line screen, renal SN12C; conditions: read-out: cytotoxicity (GI50) renal SN12C; 50% growth inhibition
# [5] = test system: UACC-62; experiment: NCI-60 human tumor cell line screen, melanoma UACC-62; conditions: read-out: cytotoxicity (GI50) melanoma UACC-62; 50% growth inhibition
# [6] = test system: SF-539; experiment: NCI-60 human tumor cell line screen, CNS SF-539; conditions: read-out: cytotoxicity (GI50) CNS SF-539; 50% growth inhibition
# [7] = test system: HCT-116; experiment: NCI-60 human tumor cell line screen, colon HCT-116; conditions: read-out: cytotoxicity (GI50) colon HCT-116; 50% growth inhibition
# [8] = test system: MCF-7; experiment: NCI-60 human tumor cell line screen, breast MCF-7; conditions: read-out: cytotoxicity (GI50) breast MCF-7; 50% growth inhibition
# [9] = test system: HOP-62; experiment: NCI-60 human tumor cell line screen, lung HOP-62; conditions: read-out: cytotoxicity (GI50) lung HOP-62; 50% growth inhibition
# [10] = test system: OVCAR-3; experiment: NCI-60 human tumor cell line screen, ovarian OVCAR-3; conditions: read-out: cytotoxicity (GI50) ovarian OVCAR-3; 50% growth inhibition
enzyme inhibitory activity Top1 (compound-induced DNA cleavage score) [1],SMILES,other results
++,"COc1cnc2c(c1)C(=O)c1c-2n(CCCNC(C)C)c(=O)c2cc(F)ccc12 [17f, 3-Fluoro-6-(3-(isopropylamino)propyl)-9-methoxy-5H-pyrido[3′,2′:4,5]cyclopenta[1,2-c]isoquinoline-5,11(6H)-dione]",–
++,"CCNCCCn1c2c(c3ccc(F)cc3c1=O)C(=O)c1cc(OC)cnc1-2 [17h, 6-(3-(Ethylamino)propyl)-3-fluoro-9-methoxy-5H-pyrido[3′,2′:4,5]cyclopenta[1,2-c]isoquinoline-5,11(6H)-dione]",–
+++,"COc1cnc2c(c1)C(=O)c1c-2n(CCCN2CCOCC2)c(=O)c2cc(F)ccc12 [17a, 3-Fluoro-9-methoxy-6-(3-morpholinopropyl)-5H-pyrido[3′,2′:4,5]cyclopenta[1,2-c]isoquinoline-5,11(6H)-dione]",–
+,"COc1cnc2c(c1)C(=O)c1c-2n(CCCN2CCC(O)CC2)c(=O)c2cc(F)ccc12 [17d, 3-Fluoro-6-(3-(4-hydroxypiperidin-1-yl)propyl)-9-methoxy-5H-pyrido[3′,2′:4,5]cyclopenta[1,2-c]isoquinoline-5,11(6H)-dione]",–
++,"COc1cnc2c(c1)C(=O)c1c-2n(CCCNC2=NCCS2)c(=O)c2cc(F)ccc12 [17c, 3-Fluoro-6-(3-((4,5-dihydrothiazol-2-yl)amino)propyl)-9-methoxy-5H-pyrido[3′,2′:4,5]cyclopenta[1,2-c]isoquinoline-5,11(6H)-dione]",–
+,"COc1cnc2c(c1)C(=O)c1c-2n(CCCN2CCNCC2)c(=O)c2cc(F)ccc12 [17e, 3-Fluoro-9-methoxy-6-(3-(piperazin-1-yl)propyl)-5H-pyrido[3′,2′:4,5]cyclopenta[1,2-c]isoquinoline-5,11(6H)-dione]",–
+,"CNCCCn1c2c(c3ccc(F)cc3c1=O)C(=O)c1cc(OC)cnc1-2 [17g, 3-Fluoro-9-methoxy-6-(3-(methylamino)propyl)-5H-pyrido[3′,2′:4,5]cyclopenta[1,2-c]isoquinoline-5,11(6H)-dione]",–
+++,"COc1cnc2c(c1)C(=O)c1c-2n(CCCN2CCCC2)c(=O)c2cc(F)ccc12 [17i, 3-Fluoro-9-methoxy-6-(3-(pyrrolidin-1-yl)propyl)-5H-pyrido[3′,2′:4,5]cyclopenta[1,2-c]isoquinoline-5,11(6H)-dione]",–

# Continued, compound first:
SMILES,enzyme inhibitory activity Top1 (compound-induced DNA cleavage score) [1],other results
"COc1cnc2c(c1)C(=O)c1c-2n(CCCN2CCC(O)CC2)c(=O)c2cc(Cl)ccc12 [compound 16d, 3-Chloro-6-(3-(4-hydroxypiperidin-1-yl)propyl)-9-methoxy-5H-pyrido[3′,2′:4,5]cyclopenta[1,2-c]isoquinoline-5,11(6H)-dione]",++++,–
"COc1cnc2c(c1)C(=O)c1c-2n(CCCn2ccnc2)c(=O)c2cc(Cl)ccc12 [compound 16b, 3-Chloro-6-(3-(1H-Imidazol-1-yl)propyl)-9-methoxy-5H-pyrido[3′,2′:4,5]cyclopenta[1,2-c]isoquinoline-5,11(6H)-dione]",+++,lethality in zebrafish (comparison between compounds) [2]: lethality difference between them is not significant
"COc1cnc2c(c1)C(=O)c1c-2n(CCCNC(C)C)c(=O)c2cc(Cl)ccc12 [16f, 3-Chloro-9-methoxy-6-(3-(isopropylamino)propyl)-5H-pyrido[3′,2′:4,5]cyclopenta[1,2-c]isoquinoline-5,11(6H)-dione]",++,–
"COc1cnc2c(c1)C(=O)c1c-2n(CCCNC2=NCCS2)c(=O)c2cc(Cl)ccc12 [compound 16c, 3-Chloro-6-(3-((4,5-dihydrothiazol-2-yl)amino)propyl)-9-methoxy-5H-pyrido[3′,2′:4,5]cyclopenta[1,2-c]isoquinoline-5,11(6H)-dione]",++,–
"COc1cnc2c(c1)C(=O)c1c-2n(CCCN2CCOCC2)c(=O)c2cc(Cl)ccc12 [compound 16a, 3-Chloro-9-methoxy-6-(3-morpholinopropyl)-5H-pyrido[3′,2′:4,5]cyclopenta[1,2-c]isoquinoline-5,11(6H)-dione]",+++,–
O=C1c2ccccc2-c2c1c1ccc([N+](=O)[O-])cc1c(=O)n2CCCn1ccnc1 [compound 7],++++,GI50 [3]: 17 nM; GI50 [4]: 15 nM; GI50 [5]: 12 nM; GI50 [6]: 16 nM; GI50 [7]: 274 nM; GI50 [8]: 2170 nM; GI50 [9]: 190 nM; GI50 [10]: 864 nM
"COc1cnc2c(c1)C(=O)c1c-2n(CCCN2CCN(C)CC2)c(=O)c2cc(Cl)ccc12 [compound 16j, 3-Chloro-9-methoxy-6-(3-(4-methylpiperazin-1-yl)propyl)-5H-pyrido[3′,2′:4,5]cyclopenta[1,2-c]isoquinoline-5,11(6H)-dione]",+,–
"CC[C@@]1(O)C(=O)OCc2c1cc1n(c2=O)Cc2cc3ccccc3nc2-1 [compound 1, camptothecin]",++++,–
"COc1cnc2c(c1)C(=O)c1c-2n(CCCn2ccnc2)c(=O)c2cc(F)ccc12 [compound 17b, 3-Fluoro-6-(3-(1H-imidazol-1-yl)propyl)-9-methoxy-5H-pyrido[3′,2′:4,5]-cyclopenta[1,2-c]isoquinoline-5,11(6H)-dione]",+++,lethality in zebrafish (comparison between compounds) [2]: lethality difference between them is not significant
COc1cnc2c(c1)C(=O)c1c-2n(CCCN2CCOCC2)c(=O)c2cc([N+](=O)[O-])ccc12 [compound 10],++++,GI50 [3]: 40 nM; GI50 [4]: 43 nM; GI50 [5]: 40 nM; GI50 [6]: 35 nM; GI50 [7]: 50 nM; GI50 [8]: 20 nM; GI50 [9]: 51 nM; GI50 [10]: 110 nM
"COc1cnc2c(c1)C(=O)c1c-2n(CCCN2CCNCC2)c(=O)c2cc(Cl)ccc12 [16e, 3-Chloro-9-methoxy-6-(3-(piperazin-1-yl)propyl)-5H-pyrido[3′,2′:4,5]cyclopenta[1,2-c]isoquinoline-5,11(6H)-dione]",+,–
